Measurements published in paper PMC6268315, “Investigating the Spectrum of Biological Activity of Substituted Quinoline-2-Carboxamides and Their Isosteres ^†” (Molecules, 2012).
≈ marks a conversion by molar mass, not a printed value. Like-named read-outs stand apart in the source and are kept apart here.

Key:
[1] = tested on: M. avium paratuberculosis ATCC19698; assay: In vitro antimycobacterial evaluation (alamarBlue); assay type: cell-based; conditions: Mycobacterium avium, 264 h, read-out: MIC/IC90 M.avium paratuberculosis
M. kansasii CIT11/06 = assay: In vitro antimycobacterial evaluation (alamarBlue); assay type: cell-based; conditions: Mycobacterium kansasii, read-out: MIC/IC90 M. kansasii
[2] = tested on: M. avium complex CIT19/06; assay: In vitro antimycobacterial evaluation (alamarBlue); assay type: cell-based; conditions: Mycobacterium avium, 120 h, read-out: MIC/IC90 M. avium complex
[3] = tested on: photosynthetic electron transport (PET) in spinach chloroplasts; assay: Inhibition of photosynthetic electron transport (PET) in spinach chloroplasts; assay type: biochemical, Spinacia oleracea L.; conditions: photoreduction of DCPIP, pH 7.2
Procedure: Chloroplasts were prepared from spinach (Spinacia oleracea L.) according to Masarovicova and Kralova. The inhibition of photosynthetic electron transport (PET) in spinach chloroplasts was determined spectrophotometrically (Genesys 6, Thermo Scientific, USA), using an artificial electron acceptor 2,6-dichlorophenol-indophenol (DCIPP) according to Kralova et al., and the rate of photosynthetic electron transport was monitored as a photoreduction of DCPIP. The measurements were carried out in phosphate buffer (0.02 mol/L, pH 7.2) containing sucrose (0.4 mol/L), MgCl2 (0.005 mol/L) and NaCl (0.015 mol/L). The chlorophyll content was 30 mg/L in these experiments and the samples were irradiated (~100 W/m^2 with 10 cm distance) with a halogen lamp (250 W) using a 4 cm water filter to prevent warming of the samples (suspension temperature 22 °C). The studied compounds were dissolved in DMSO due to their limited water solubility. […] The inhibitory efficiency of the studied compounds was expressed by IC50 values, i.e., by molar concentration of the compounds causing 50% decrease in the oxygen evolution rate relative to the untreated control.

[4] = tested on: human monocytic leukemia THP-1 cells; conditions: for lethal effect on THP-1 cells at the highest dose achieved in the medium: 100 µmol/L; for LD50: human, 24 h
[5] = tested on: M. tuberculosis and other atypical mycobacterial strains; assay: In vitro antimycobacterial screening, results in words; assay type: cell-based, Mycobacterium sp.; conditions: low solubility, precipitation in test media
[6] = tested on: human monocytic leukemia THP-1 cells; conditions: assessed in this line formerly; cited from earlier work

CC(C)NC(=O)c1ccc2ccccc2n1 [Compound 1, N-Isopropylquinoline-2-carboxamide]
MIC ([1]; ATCC19698, 11 days): 1170 µM (≈ 250 µg/mL)
MIC (M. kansasii CIT11/06; 120 h, CIT11/06, 5 days): 1170 µM (≈ 250 µg/mL)
melting point: 75 to 76 °C
MIC ([2]; CIT19/06, 5 days): 583 µM (≈ 125 µg/mL)

CCCCCCCCCCCCNC(=O)c1ccc2ccccc2n1 [Compound 2, N-Dodecylquinoline-2-carboxamide]
IC50 [3]: 573 µM
MIC ([1]; ATCC19698, 11 days): 734 µM (≈ 250 µg/mL)
MIC (M. kansasii CIT11/06; 120 h, CIT11/06, 5 days): 734 µM (≈ 250 µg/mL)
MIC [2]: 367 µM (≈ 125 µg/mL)

O=C(c1ccc2ccccc2n1)N1CCCC1 [Compound 3, 2-(Pyrrolidin-1-ylcarbonyl)quinoline]
IC50 [3]: 1600 µM
MIC ([1]; ATCC19698, 11 days): 111 µM (≈ 25.1 µg/mL)
MIC (M. kansasii CIT11/06; 120 h, CIT11/06, 5 days): 111 µM (≈ 25.1 µg/mL)
lethal effect on THP-1 cells at the highest dose achieved in the medium [4]: did not lead to the 100% lethal effect
LD50 [4]: >100 µmol/L
MIC [2]: 552 µM (≈ 125 µg/mL)

O=C(NC1CCCC1)c1ccc2ccccc2n1 [Compound 5, N-Cyclopentylquinoline-2-carboxamide]
IC50 [3]: 762 µM
MIC [1]: 491 µM (≈ 118 µg/mL)
MIC (M. kansasii CIT11/06; CIT11/06, 120 h): 491 µM (≈ 118 µg/mL)
melting point: 63 to 64 °C
MIC [2]: 491 µM (≈ 118 µg/mL)

O=C(NC1CCCCC1)c1ccc2ccccc2n1 [Compound 6, N-Cyclohexylquinoline-2-carboxamide]
IC50 [3]: 1040 µM
MIC ([1]; ATCC19698, 11 days): 520 µM (≈ 132 µg/mL)
MIC (M. kansasii CIT11/06; 120 h, CIT11/06, 5 days): 520 µM (≈ 132 µg/mL)
melting point: 98 to 99 °C
MIC ([2]; CIT19/06, 5 days): 520 µM (≈ 132 µg/mL)

O=C(NC1CCCCCC1)c1ccc2ccccc2n1 [Compound 7, N-Cycloheptylquinoline-2-carboxamide]
MIC ([1]; ATCC19698, 11 days): 223 µM (≈ 59.8 µg/mL)
MIC (M. kansasii CIT11/06; 120 h, CIT11/06, 5 days): 466 µM (≈ 125 µg/mL)
LD50 [4]: 62 ± 4.5 µmol/L
MIC ([2]; CIT19/06, 5 days): 466 µM (≈ 125 µg/mL)

O=C(NC1CCCCCCC1)c1ccc2ccccc2n1 [Compound 8, N-Cyclooctylquinoline-2-carboxamide]
IC50 [3]: 415 µM
melting point: 72 to 73 °C
antimycobacterial activity [5]: no activity

O=C(Nc1ccccc1)c1ccc2ccccc2n1 [Compound 9, N-Phenylquinoline-2-carboxamide]
IC50 [3]: 85.1 µM
antimycobacterial activity [5]: non-active

O=C(NCCc1ccccc1)c1ccc2ccccc2n1 [Compound 11, N-(2-Phenylethyl)quinoline-2-carboxamide]
MIC ([1]; ATCC19698, 11 days): 905 µM (≈ 250 µg/mL)
MIC (M. kansasii CIT11/06; 120 h, CIT11/06, 5 days): 452 µM (≈ 125 µg/mL)
lethal effect on THP-1 cells at the highest dose achieved in the medium [4]: did not lead to the 100% lethal effect
LD50 [4]: >100 µmol/L
MIC ([2]; CIT19/06, 5 days): 452 µM (≈ 125 µg/mL)

Cc1cccc(NC(=O)c2ccc3ccccc3n2)c1 [Compound 14b, N-(3-Methylphenyl)quinoline-2-carboxamide]
IC50 [3]: 101 µM
MIC ([1]; ATCC19698, 11 days): 939 µM (≈ 246 µg/mL)
MIC (M. kansasii CIT11/06; CIT11/06, 120 h): 469 µM (≈ 123 µg/mL)
melting point: 82 to 83 °C
MIC [2]: 469 µM (≈ 123 µg/mL)

O=C(c1ccc2ccccc2c1)N1CCCC1 [Compound 22, 1-(2-Naphthoyl)pyrrolidine]
MIC ([1]; ATCC19698, 11 days): 111 µM (≈ 25 µg/mL)
MIC (M. kansasii CIT11/06; 120 h, CIT11/06, 5 days): 111 µM (≈ 25 µg/mL)
lethal effect on THP-1 cells at the highest dose achieved in the medium [4]: did not lead to the 100% lethal effect
LD50 [4]: >100 µmol/L
MIC [2]: 554 µM (≈ 125 µg/mL)

COc1ccccc1NC(=O)c1ccc2ccccc2c1 [Compound 32a, N-(2-Methoxyphenyl)-2-naphthamide]
IC50 [3]: 763 µM
MIC ([1]; ATCC19698, 11 days): 216 µM (≈ 59.9 µg/mL)
MIC (M. kansasii CIT11/06; 120 h, CIT11/06, 5 days): 451 µM (≈ 125 µg/mL)
melting point: 82 °C
MIC ([2]; CIT19/06, 5 days): 451 µM (≈ 125 µg/mL)

O=C(Nc1ccc([N+](=O)[O-])cc1)c1ccc2ccccc2c1 [Compound 38c, N-(4-Nitrophenyl)-2-naphthamide]
IC50 [3]: 260 µM
melting point: 200 °C

NNC(=O)c1ccncc1 [INH, isoniazid, reference compound]
MIC [1]: > 729 µM
MIC (M. kansasii CIT11/06; 120 h, CIT11/06, 5 days): < 72.9 µM
MIC ([2]; CIT19/06, 5 days): < 72.9 µM

NC(=O)c1cnccn1 [PZA, pyrazinamide, reference compound]
MIC [1]: > 812 µM
MIC (M. kansasii CIT11/06; CIT11/06, 120 h): > 812 µM
MIC [2]: > 812 µM

CC[C@@]1(O)C(=O)OCc2c1cc1n(c2=O)Cc2cc3ccccc3nc2-1 [camptothecin]
LD50 [6]: 0.16 ± 0.07 µmol/L
